The IC50 is the midpoint of a concentration-inhibition curve.

The target in one series is hNaV1.7 (Homo sapiens (Human), UniProt Q15858). In words: Ligand Binding Assay (LBA), radioligand displacement on hNaV1.7 HEK293 cell membranes. The note with it: 0.5 nM [3H] radioligand, 24 hours at room temperature; read-out: NaV1.7 LBA IC50. The protocol:
Ligand Binding Assay (LBA): hNaV1.7 binding affinities were determined with a filtration binding assay using purified membranes from HEK293 cells stably expressing hNaV1.7. HEK293 cells from a 10-stack cell culture flask (approximately 10^10 cells) were dissociated, frozen, and stored at −80° C. To prepare membranes, the frozen cell pellet was thawed and suspended in 6 ml hypotonic lysis buffer (50 mM HEPES, 0.1% mammalian protease inhibitor cocktail). 1 ml of resuspended cells was added to an additional 6 ml of lysis buffer and homogenized with 30 strokes of a tight pestle in a glass homogenizer. Homogenate was centrifuged at 1000×g for 10 minutes at 4° C. and the resulting supernatant was further centrifuged at 38,500×g for 60 minutes at 4° C. The resulting pellet was resuspended in binding buffer (50 mM HEPES, 130 mM NaCl, 5.4 mM KCl, 0.8 mM MgCl2, 5 mM glucose, pH 7.4) and needle homogenized with a 25 gauge needle. Protein concentration was determined with a BCA protein assay. Purified membranes were aliquoted, flash frozen in an ethyl alcohol dry ice bath, and stored at −80° C. To measure displacement of a radiolabeled ligand, 50 μg of purified hNaV1.7 HEK cell membranes were incubated with test compounds (eight concentrations, in duplicate) and 0.5 nM [3H] labeled radioligand in a 96 well plate for 24 hours at room temperature on a shaker. The total binding reaction volume was 250 μl, consisting of 200 μl purified hNaV1.7 HEK cell membranes, 25 μl test compound, and 25 μl radioligand. Non-specific binding was defined by 20 μM of a reference hNaV1.7 inhibitor. Binding reactions were terminated by filtration through GF/B filters presoaked in 0.5% polyethyleneamine. Filters were washed 5 times with 2 ml each of 4′C wash buffer (50 mM Tris-HCl, pH 7.4 at 4° C.). Bound radioactivity captured on the filters was counted on a liquid scintillation counter. Specific binding, expressed as % inhibition, was fit with Graphpad Prism software to determine binding IC50 values. Results are reported in Table 1 (NaV1.7 LBA IC50 in nM).

The target of the next series is NaV1.5 (Homo sapiens (Human), UniProt Q14524). The series is described as follows: Automated electrophysiology, IonWorks Barracuda population patch clamp, NaV1.5 current (inactivated-state protocol). The following applies: HEK 293 cells expressing NaV1.5; read-out: NaV1.5 Barra IC50. Format: cell-based. The protocol:
(§1) Automated Electrophysiology: Ion Works Barracuda population patch clamp (PPC). PPC measurements were performed using an IonWorks Barracuda instrument (Molecular Devices Corporation, Union City, Calif.) using either PatchPlate™ PPC substrates (Molecular Devices Corporation) with 64 apertures per well. The ability to average currents from 64 recordings from each well greatly improves data consistency and recording success rates in the measurement of NaV1.7 mediated ionic currents. Calculated leak current was digitally subtracted from the total cell NaV1.7 current for each sample point acquired.
(§2) NaV1.7 currents were elicited by a voltage clamp protocol designed to bias the NaV1.7 channels to their inactivated state as follows. From holding potential of −60 mV cells were briefly hyperpolarized to −100 mV for 1.25 sec, then stepped to −20 mV for 20 sec to inactivate the channels. This was followed by a relatively brief hyperpolarization to −100 mv for 300 ms, then a 20 msec test pulse to −20 mV to elicit the NaV1.7 current used to measure the pharmacology of all test compounds. Compounds were incubated for 600 sec between the pre- and post-compound reads. The external recording solution used was (in mM) 137 NaCl, 4 KCl, 1 MgCl2, 1.8 CaCl2, 10 Hepes, 10 glucose, pH to 7.4 with NaOH, and the internal solution used was (in mM) 100 K-gluconate, 40 KCl, 3.2 zMgCl2, 5 EGTA, 10 HEPES pH to 7.2 with KOH. The same solutions were used to record NaV1.5 currents, with the following voltage clamp protocol. NaV1.5 currents were elicited by a voltage clamp protocol designed to bias the NaV1.5 channels to their inactivated state as follows. From holding potential of −40 mV cells were briefly hyperpolarized to −100 mV for 300 ms, then stepped to −10 mV for 20 sec to inactivate the channels. This was followed by a relatively brief hyperpolarization to −100 mv for 30 ms, then a 20 msec test pulse to −10 mV to elicit the NaV1.5 current used to measure the pharmacology of all test compounds.
(§3) HEK 293 cells expressing NaV1.7 and NaV1.5 channels, were used (Essen Biosciences, Ann Arbor, Mich.). Cells were cultured in T-175 flasks and passaged every 2 to 3 days at 1:3 to 1:6 seeding density dilutions. Cells were grown to 70% to 90% confluence in a flask and removed from the incubator (37° C., 5% CO2) 1 to 3 days after plating. Growth medium was aspirated from the culture flasks. Cells were gently rinsed with 10 ml of PBS (Catalog number: 14190144, Gibco) to remove residual media. Next a total of 2 mL TrypLE (Gibco) solution was added, and the flasks containing cells were sat for 3 min at RT, after which, the cells became visibly rounded and were easily dislodged from the bottom of the flask with a few brief taps on a solid surface. A total of 8 mL of media was added to the flask to inactivate the TrypLE, and the mixture was centrifuged at 910 rpm for 4 min. The cell supernatant was decanted, and the cell pellets were resuspended in 5-6 mL of external solution followed by gentle triturations using a 10 ml pipette, and transferred to a 15 ml conical tube and immediately brought to the IW Barracuda instrument.
(§4) Peak membrane currents were analyzed with IW Barracuda software and exported to Excel for further analysis. Concentration response curve fitting was performed with BMS in-house software. IC50 values were obtained by fits of the Hill equation to the average percent inhibition data plotted versus compound concentration. […] Results are reported in Table 1 (NaV1.7 Barra IC50 in nM and NaV1.5 Barra IC50 in nM).
A general note: The patch-clamp technique gives a direct electrical read-out from membranes.

The next series concerns the target NaV1.7 (Homo sapiens (Human), UniProt Q15858). The series is described as follows: Automated electrophysiology, IonWorks Barracuda population patch clamp, NaV1.7 current (inactivated-state protocol). Format: cell-based. The note with it: HEK 293 cells expressing NaV1.7; 600 sec compound incubation; read-out: NaV1.7 Barra IC50. The protocol: as §1, §2, §3, §4

NaV1.5, sequence (Q14524 whole entry): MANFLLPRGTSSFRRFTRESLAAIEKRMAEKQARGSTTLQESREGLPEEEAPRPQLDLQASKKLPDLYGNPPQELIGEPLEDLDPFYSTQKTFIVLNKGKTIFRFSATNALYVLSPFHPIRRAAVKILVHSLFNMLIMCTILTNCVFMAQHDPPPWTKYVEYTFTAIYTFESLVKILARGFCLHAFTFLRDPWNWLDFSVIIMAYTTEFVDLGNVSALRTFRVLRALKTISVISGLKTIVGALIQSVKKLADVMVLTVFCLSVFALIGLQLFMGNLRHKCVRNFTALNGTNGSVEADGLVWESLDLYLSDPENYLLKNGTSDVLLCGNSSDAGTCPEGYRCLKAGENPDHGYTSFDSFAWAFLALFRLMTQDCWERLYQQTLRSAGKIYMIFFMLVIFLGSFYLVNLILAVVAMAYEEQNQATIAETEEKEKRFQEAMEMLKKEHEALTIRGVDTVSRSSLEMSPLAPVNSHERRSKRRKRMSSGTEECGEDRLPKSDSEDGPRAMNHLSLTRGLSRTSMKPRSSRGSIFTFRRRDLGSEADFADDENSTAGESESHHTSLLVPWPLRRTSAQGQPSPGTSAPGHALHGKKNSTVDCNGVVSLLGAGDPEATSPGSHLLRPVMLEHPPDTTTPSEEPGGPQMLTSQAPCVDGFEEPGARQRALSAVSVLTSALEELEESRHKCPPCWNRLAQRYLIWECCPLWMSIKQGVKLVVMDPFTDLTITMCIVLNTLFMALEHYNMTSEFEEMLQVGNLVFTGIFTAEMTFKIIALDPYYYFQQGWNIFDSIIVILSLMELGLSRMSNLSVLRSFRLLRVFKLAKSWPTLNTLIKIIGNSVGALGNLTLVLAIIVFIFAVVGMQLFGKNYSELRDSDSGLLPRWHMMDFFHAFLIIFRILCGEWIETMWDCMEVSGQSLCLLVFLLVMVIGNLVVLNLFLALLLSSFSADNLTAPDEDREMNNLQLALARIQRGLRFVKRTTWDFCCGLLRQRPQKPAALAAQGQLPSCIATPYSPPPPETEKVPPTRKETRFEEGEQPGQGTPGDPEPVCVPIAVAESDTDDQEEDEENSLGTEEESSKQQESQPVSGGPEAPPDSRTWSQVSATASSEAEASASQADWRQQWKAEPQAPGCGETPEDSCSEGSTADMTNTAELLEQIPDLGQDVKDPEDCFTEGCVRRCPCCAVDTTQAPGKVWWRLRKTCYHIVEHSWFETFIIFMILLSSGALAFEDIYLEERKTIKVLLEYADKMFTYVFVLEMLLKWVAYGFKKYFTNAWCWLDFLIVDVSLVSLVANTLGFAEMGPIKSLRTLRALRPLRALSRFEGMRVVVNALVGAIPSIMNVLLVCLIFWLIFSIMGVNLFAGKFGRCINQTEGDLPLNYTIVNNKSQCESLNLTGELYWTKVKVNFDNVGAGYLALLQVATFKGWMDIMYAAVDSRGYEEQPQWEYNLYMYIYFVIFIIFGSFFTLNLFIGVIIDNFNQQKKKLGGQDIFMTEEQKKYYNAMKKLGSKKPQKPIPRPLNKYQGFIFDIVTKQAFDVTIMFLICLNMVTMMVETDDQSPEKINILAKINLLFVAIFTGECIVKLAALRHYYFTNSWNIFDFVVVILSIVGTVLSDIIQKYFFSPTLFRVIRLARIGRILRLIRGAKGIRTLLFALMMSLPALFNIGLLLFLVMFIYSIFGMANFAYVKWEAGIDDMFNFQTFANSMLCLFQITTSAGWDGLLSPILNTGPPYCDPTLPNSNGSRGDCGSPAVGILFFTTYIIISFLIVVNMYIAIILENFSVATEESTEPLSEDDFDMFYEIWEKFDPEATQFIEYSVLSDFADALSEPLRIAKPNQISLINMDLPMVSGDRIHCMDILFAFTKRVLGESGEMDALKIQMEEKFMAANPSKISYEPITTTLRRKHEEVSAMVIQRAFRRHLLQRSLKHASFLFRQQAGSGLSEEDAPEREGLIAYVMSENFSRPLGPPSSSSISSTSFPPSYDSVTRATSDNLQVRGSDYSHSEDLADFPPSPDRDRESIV
NaV1.7, sequence (Q15858 whole entry): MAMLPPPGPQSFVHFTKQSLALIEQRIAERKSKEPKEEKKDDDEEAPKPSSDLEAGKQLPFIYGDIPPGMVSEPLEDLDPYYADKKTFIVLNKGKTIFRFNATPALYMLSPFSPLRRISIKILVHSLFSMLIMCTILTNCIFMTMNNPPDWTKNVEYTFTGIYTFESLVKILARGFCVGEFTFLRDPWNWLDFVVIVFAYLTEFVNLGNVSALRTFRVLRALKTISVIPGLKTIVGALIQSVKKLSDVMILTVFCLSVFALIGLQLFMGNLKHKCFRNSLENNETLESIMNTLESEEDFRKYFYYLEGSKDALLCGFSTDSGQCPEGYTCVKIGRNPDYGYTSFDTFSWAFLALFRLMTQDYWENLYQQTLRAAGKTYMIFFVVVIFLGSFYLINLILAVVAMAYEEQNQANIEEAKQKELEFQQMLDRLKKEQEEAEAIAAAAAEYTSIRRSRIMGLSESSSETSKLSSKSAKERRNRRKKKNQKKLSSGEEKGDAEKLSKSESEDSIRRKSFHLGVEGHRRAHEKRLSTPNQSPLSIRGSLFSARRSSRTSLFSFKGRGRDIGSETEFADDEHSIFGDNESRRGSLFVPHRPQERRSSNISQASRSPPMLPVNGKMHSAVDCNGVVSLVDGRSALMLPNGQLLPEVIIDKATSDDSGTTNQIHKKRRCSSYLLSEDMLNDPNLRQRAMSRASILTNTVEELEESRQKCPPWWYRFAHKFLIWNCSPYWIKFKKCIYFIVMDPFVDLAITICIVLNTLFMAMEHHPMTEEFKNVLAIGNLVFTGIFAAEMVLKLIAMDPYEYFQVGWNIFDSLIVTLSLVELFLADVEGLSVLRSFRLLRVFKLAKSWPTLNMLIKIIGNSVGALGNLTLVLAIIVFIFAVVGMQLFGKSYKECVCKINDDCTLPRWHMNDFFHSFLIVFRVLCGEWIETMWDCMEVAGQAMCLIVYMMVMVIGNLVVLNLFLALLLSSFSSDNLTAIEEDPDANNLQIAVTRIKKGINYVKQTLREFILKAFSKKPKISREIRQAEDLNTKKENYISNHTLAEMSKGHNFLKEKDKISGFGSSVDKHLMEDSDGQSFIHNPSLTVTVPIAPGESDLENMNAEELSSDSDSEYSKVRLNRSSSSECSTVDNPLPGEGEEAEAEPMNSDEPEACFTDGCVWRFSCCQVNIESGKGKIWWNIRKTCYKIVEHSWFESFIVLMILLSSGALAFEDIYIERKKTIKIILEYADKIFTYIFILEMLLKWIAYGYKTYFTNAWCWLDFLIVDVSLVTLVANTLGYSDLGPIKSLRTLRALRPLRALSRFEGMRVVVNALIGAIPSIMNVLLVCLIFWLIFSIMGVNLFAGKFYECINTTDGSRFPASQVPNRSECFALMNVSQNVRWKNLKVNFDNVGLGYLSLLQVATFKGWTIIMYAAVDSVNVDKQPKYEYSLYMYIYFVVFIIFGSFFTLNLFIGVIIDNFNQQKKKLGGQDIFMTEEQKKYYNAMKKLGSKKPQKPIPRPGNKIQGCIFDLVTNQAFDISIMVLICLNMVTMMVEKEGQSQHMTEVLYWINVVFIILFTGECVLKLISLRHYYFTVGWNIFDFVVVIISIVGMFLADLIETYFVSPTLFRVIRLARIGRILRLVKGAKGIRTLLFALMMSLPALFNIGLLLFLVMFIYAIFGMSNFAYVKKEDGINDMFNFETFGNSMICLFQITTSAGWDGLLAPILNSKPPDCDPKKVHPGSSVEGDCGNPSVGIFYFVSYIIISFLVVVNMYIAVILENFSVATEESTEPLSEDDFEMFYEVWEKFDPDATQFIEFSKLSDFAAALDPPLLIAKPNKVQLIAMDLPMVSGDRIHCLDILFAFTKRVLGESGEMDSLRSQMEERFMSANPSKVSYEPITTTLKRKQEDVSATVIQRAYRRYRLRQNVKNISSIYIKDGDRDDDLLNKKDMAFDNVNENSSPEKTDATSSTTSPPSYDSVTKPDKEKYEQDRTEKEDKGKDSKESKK
hNaV1.7, sequence (Q15858 whole entry): as above

For `CCc1ccc(-c2cn(C)c3cc(C(=O)NS(C)(=O)=O)ccc23)cc1` [Example 14, 3-(4-Ethylphenyl)-1-methyl-N-(methylsulfonyl)-1H-indole-6-carboxamide], the values for the IC50 on hNaV1.7, on NaV1.5 and on NaV1.7 were 554 nM, over 30000 nM and 173 nM, respectively.
For the compound `Cc1cccc(-c2cn(C)c3cc(C(=O)NS(C)(=O)=O)ccc23)c1` [Example 15, 1-Methyl-N-(methylsulfonyl)-3-(m-tolyl)-1H-indole-6-carboxamide], the IC50 at hNaV1.7 is 943 nM; at NaV1.5, over 30000 nM; on NaV1.7, 375 nM.
In the case of `CC(C)c1cccc(-c2cn(C)c3cc(C(=O)NS(C)(=O)=O)ccc23)c1` [Example 16, 3-(3-Isopropylphenyl)-1-methyl-N-(methylsulfonyl)-1H-indole-6-carboxamide], the IC50 on hNaV1.7 was 217 nM; on NaV1.5, over 30000 nM; on NaV1.7, 427 nM.
In the same order, the values of `CCc1cccc(-c2cn(C)c3cc(C(=O)NS(C)(=O)=O)ccc23)c1` [Example 17, 3-(3-Ethylphenyl)-1-methyl-N-(methylsulfonyl)-1H-indole-6-carboxamide] are 440 nM, over 30000 nM and 220 nM.
On the same counts, the results for `Cn1cc(-c2ccc(C(F)(F)F)cc2)c2ccc(C(=O)NS(=O)(=O)C3CC3)cc21` [Example 18, N-(cyclopropylsulfonyl)-1-methyl-3-(4-(trifluoromethyl)phenyl)-1H-indole-6-carboxamide] are 77 nM, 8720 nM and 109 nM.
As for `Cn1cc(-c2ccc(C(F)(F)F)cc2)c2ccc(C(=O)NS(=O)(=O)C(F)(F)F)cc21` [Example 19, 1-Methyl-3-(4-(trifluoromethyl)phenyl)-N-((trifluoromethyl)sulfonyl)-1H-indole-6-carboxamide], the IC50 came out at 1080 nM on hNaV1.7, 7480 nM at NaV1.5 and 812 nM at NaV1.7.
On the same counts, the results for `Cn1cc(-c2ccc(C(F)(F)F)cc2)c2ccc(C(=O)NS(=O)(=O)c3cccs3)cc21` [Example 20, 1-Methyl-N-(thiophen-2-ylsulfonyl)-3-(4-(trifluoromethyl)phenyl)-1H-indole-6-carboxamide] are 361 nM, 3860 nM and 419 nM.
In the same order, the values of `Cn1cc(-c2ccc(C(F)(F)F)cc2)c2ccc(C(=O)NS(=O)(=O)c3ccc(F)c(F)c3)cc21` [Example 21, N-((3,4-difluorophenyl)sulfonyl)-1-methyl-3-(4-(trifluoromethyl)phenyl)-1H-indole-6-carboxamide] are over 30000 nM, 18100 nM and over 30000 nM.
On the same counts, the results for `CC(C)COc1ccc(-c2cn(C)c3cc(C(=O)NS(C)(=O)=O)ccc23)cn1` [Example 23, 3-(6-Isobutoxypyridin-3-yl)-1-methyl-N-(methylsulfonyl)-1H-indole-6-carboxamide] are 468 nM, over 30000 nM and 183 nM.
With `CC(C)COc1ncc(-c2cn(C)c3cc(C(=O)NS(=O)(=O)C4CC4)ccc23)cc1Cl` [Example 24, 3-(5-Chloro-6-isobutoxypyridin-3-yl)-N-(cyclopropylsulfonyl)-1-methyl-1H-indole-6-carboxamide], the values for the half-maximal inhibitory concentration (IC50) on hNaV1.7, at NaV1.5 and at NaV1.7 were 22 nM, 12000 nM and 294 nM, respectively.
`CC(C)COc1ncc(-c2cn(C(C)C)c3cc(C(=O)NS(C)(=O)=O)ccc23)cc1Cl` [Example 29, 3-(5-Chloro-6-isobutoxypyridin-3-yl)-1-isopropyl-N-(methylsulfonyl)-1H-indole-6-carboxamide]: the values for the IC50 on hNaV1.7, on NaV1.5 and on NaV1.7 were 89 nM, 1490 nM and 703 nM, respectively.
In the same order, the values of `Cn1cc(-c2ccc(C(F)F)cc2)c2ccc(C(=O)NS(C)(=O)=O)cc21` [Example 30, 3-(4-(Difluoromethyl)phenyl)-1-methyl-N-(methylsulfonyl)-1H-indole-6-carboxamide] are 1010 nM, over 30000 nM and 262 nM.
On the same counts, the results for `Cn1cc(-c2ccc(C(F)F)cc2)c2ccc(C(=O)NS(=O)(=O)C3CC3)cc21` [Example 31, N-(cyclopropylsulfonyl)-3-(4-(difluoromethyl)phenyl)-1-methyl-1H-indole-6-carboxamide] are 321 nM, over 30000 nM and 69 nM.
Take `Cn1cc(-c2cnc(OCC3CC3)c(Cl)c2)c2ccc(C(=O)NS(C)(=O)=O)cc21` [Example 34, 3-(5-Chloro-6-(cyclopropylmethoxy)pyridin-3-yl)-1-methyl-N-(methylsulfonyl)-1H-indole-6-carboxamide]: the IC50 at hNaV1.7 amounted to 270 nM; on NaV1.5 it was 8370 nM; on NaV1.7, 189 nM.
As to `Cn1cc(-c2cnc(OCC3CC3)c(Cl)c2)c2ccc(C(=O)NS(=O)(=O)C3CC3)cc21` [Example 35, 3-(5-Chloro-6-(cyclopropylmethoxy)pyridin-3-yl)-N-(cyclopropylsulfonyl)-1-methyl-1H-indole-6-carboxamide], the figures for the IC50 at hNaV1.7, at NaV1.5 and at NaV1.7 were 52 nM, 15100 nM and 86 nM, respectively.
In the same order, the values of `CCS(=O)(=O)NC(=O)c1ccc2c(-c3cnc(OCC(C)C)c(Cl)c3)cn(C)c2c1` [Example 36, 3-(5-Chloro-6-isobutoxypyridin-3-yl)-N-(ethylsulfonyl)-1-methyl-1H-indole-6-carboxamide] are 38 nM, 5670 nM and 154 nM.
`CC(C)COc1ncc(-c2cn(C)c3cc(C(=O)NS(=O)(=O)C(C)C)ccc23)cc1Cl` [Example 37, 3-(5-Chloro-6-isobutoxypyridin-3-yl)-N-(isopropylsulfonyl)-1-methyl-1H-indole-6-carboxamide]: the IC50 on hNaV1.7 came out at 207 nM; on NaV1.5, 14000 nM; at NaV1.7 it was 458 nM.

The record behind these values is patent publication US10550080B2 (BRISTOL-MYERS SQUIBB COMPANY, priority 2016, dated 2020).
